Assay results from patent US9737515B2, “Compositions and methods for inhibiting tumor growth” (Consejo Nacional De Investigaciones Cientificas Y Tecnicas …, priority 2015, dated 2017).

How the values were obtained:
[1] = system: MCF-7 Tet-Off/ACSL4 cells; assay: BrdU incorporation cell proliferation assay in MCF-7 Tet-Off/ACSL4 cells; assay type: cell-based, human
Experimental: (§1) MCF-7 Tet-Off empty vector and MCF-7 Tet-Off/ACSL4 cells were plated at a density of 4000 cells/well in 96-well plates with 10% FBS-supplemented D-MEM medium and allowed to adhere overnight at 37° C. in a humidified, 5% CO2 atmosphere. The medium was then changed to serum-free medium. After 24 h, the cells were switched to 10% FBS-supplemented D-MEM medium and incubated with rapamycin (10 nM) and/or rosiglitazone (75 μM) for 96 h. Subsequently, cell proliferation was measured by the bromo-deoxyuridine (BrdU) incorporation assay.
Following the same procedure as that described in Example 1 above, the cells were switched to 10% FBS-supplemented D-MEM medium and incubated with rosiglitazone (10 or 25 μM) and/or 4-hydroxytamoxifen (4-OHTAM, 2.5 or 5.0 μM). Both rosiglitazone and 4-hydroxytamoxifen were tested alone at each of the concentrations used, and in all the possible combinations with each other (see FIG. 6A).

[2] = system: MCF-7 Tet-Off empty vector cells; assay: BrdU incorporation cell proliferation assay in MCF-7 Tet-Off empty vector cells; assay type: cell-based; details: Homo sapiens, MCF7, 96 h, vs control cells
Experimental: as §1

4-hydroxytamoxifen [4-OHT]
% inhibition of cell proliferation ([1]; 4-OHT 2.5 μM, 96 h): 0.802% | % inhibition of cell proliferation ([1]; 4-OHT 5 μM, 96 h): 3.464% | inhibition of cell proliferation (in words) ([1]; rosiglitazone 10 or 25 μM and/or 4-OHTAM 2.5 or 5 μM, 96 h, FIG. 6A): did not produce a significant inhibition

CO[C@H]1C[C@@H]2CC[C@@H](C)[C@@](O)(O2)C(=O)C(=O)N2CCCC[C@H]2C(=O)O[C@H]([C@H](C)C[C@@H]2CC[C@@H](O)[C@H](OC)C2)CC(=O)[C@H](C)/C=C(\C)[C@@H](O)[C@@H](OC)C(=O)[C@H](C)C[C@H](C)/C=C/C=C/C=C/1C [Rapamycin]
inhibition at 0.01 µM ([1]; Homo sapiens, MCF7, 96 h, Rapamycin 10 nM, vs control cells): 25% | % inhibition of cell proliferation ([1]; Rapamycin 10 nM, 96 h, vs control cells): 22.159% | inhibition at 0.01 µM ([2]; Rapamycin 10 nM): 12.2%

CN(CCOc1ccc(CC2SC(=O)NC2=O)cc1)c1ccccn1 (stereo not shown) [Rosiglitazone]
inhibition at 10 µM ([1]; Homo sapiens, MCF7, 96 h, Rosiglitazone 10 μM): 1.88% | inhibition at 25 µM ([1]; Homo sapiens, MCF7, 96 h, Rosiglitazone 25 μM): 7.97% | inhibition at 75 µM ([1]; Homo sapiens, MCF7, 96 h, Rosiglitazone 75 μM, vs control cells): 28.5% | inhibition at 75 µM ([2]; Rosiglitazone 75 μM): 2.81%
